Test system: not listed separately
Test: Assay C: Metabolic stability in human liver microsomes (Human MST)
Type: in vitro ADME
Details: pooled human liver microsomes, pH 7.6; human liver microsomes 1 mg/mL, compound 1 μM, 37° C., NADPH; read-out: Human MST t1/2
Method: C. Assessment of Metabolic Stability in Human Liver Microsomes (Human MST)
The metabolic stability of the compounds according to the invention may be investigated as follows:
The metabolic degradation of the test compound is assayed at 37° C. with pooled human liver microsomes. The final incubation volume of 100 μL per time point contains TRIS buffer pH 7.6 at room temperature (0.1 M), MgCl2 (5 mM), microsomal protein (1 mg/mL) and the test compound at a final concentration of 1 μM. Following a short pre-incubation period at 37° C., the reactions are initiated by addition of beta-nicotinamide adenine dinucleotide phosphate, reduced form (NADPH, 1 mM), and terminated by transferring an aliquot into solvent after different time points. After centrifugation (10000 g, 5 min), an aliquot of the supernatant is assayed by LC-MS/MS for the amount of parent compound. The half-life (t1/2) is determined by the slope of the semi-logarithmic plot of the concentration-time profile.

`CCN(C(=O)c1ccc(F)cc1-n1nccn1)[C@@H](C)COc1ncc(C(F)(F)F)cc1F` [Example 48] and `CCN(C(=O)c1cc(F)ccc1-n1nccn1)[C@@H](C)COc1ncc(C(F)(F)F)cc1F` [Example 51] are within 1.5-fold of each other in half-life at 1 μM: 31 min for the first, 36 min for the second.

Going from `CCN(C(=O)c1cccc(Cl)c1-n1nccn1)[C@@H](C)COc1ncc(C(F)(F)F)cc1F` [Example 49] to `CCN(C(=O)c1ccc(F)c(F)c1-n1nccn1)[C@@H](C)COc1ncc(C(F)(F)F)cc1F` [Example 50], the half-life at 1 μM falls from 81 min to 46 min (1.8-fold).

Going from `CCN(C(=O)c1cc(F)c(F)cc1-n1nccn1)[C@@H](C)COc1ncc(C(F)(F)F)cc1F` [Example 52] to `CCN(C(=O)c1cc(F)cc(F)c1-n1nccn1)[C@@H](C)COc1ncc(C(F)(F)F)cc1F` [Example 54], the half-life at 1 μM rises from 38 min to 87 min (2.3-fold).

`CCN(C(=O)c1ccc(F)cc1-c1nnc(C)o1)[C@@H](C)COc1ncc(C(F)(F)F)cc1F` [Example 55] and `CCN(C(=O)c1c(F)cccc1-n1nccn1)[C@@H](C)COc1ncc(C(F)(F)F)cc1F` [Example 56] are within 1.5-fold of each other in half-life at 1 μM: 64 min for the first, 48 min for the second.

Molecular target: T1, human orexin 2 receptor (Homo sapiens, UniProt O43614)
T1 construct: stably expressing the full-length human orexin 2 receptor; expressed in transfected cells; host or cells: CHO-K1 (CHO-K1/hOX2), co-expressing aequorin
T1 sequence (O43614 1-444): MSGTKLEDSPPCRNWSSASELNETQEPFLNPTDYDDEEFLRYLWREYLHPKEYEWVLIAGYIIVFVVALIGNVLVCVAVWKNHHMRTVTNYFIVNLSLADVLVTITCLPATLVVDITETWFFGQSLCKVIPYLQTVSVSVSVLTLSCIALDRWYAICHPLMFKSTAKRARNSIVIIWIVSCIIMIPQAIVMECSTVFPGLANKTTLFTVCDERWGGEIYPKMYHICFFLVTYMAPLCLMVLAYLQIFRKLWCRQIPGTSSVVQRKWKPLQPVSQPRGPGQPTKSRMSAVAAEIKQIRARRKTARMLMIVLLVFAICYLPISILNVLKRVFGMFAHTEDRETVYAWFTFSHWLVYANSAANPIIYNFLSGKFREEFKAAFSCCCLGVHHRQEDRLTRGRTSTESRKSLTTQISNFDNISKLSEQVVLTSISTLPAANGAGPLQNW
Test: Assay B: In vitro testing of OX2R potency: OX2R IP1 (HTRF, CHO-K1/hOX2 cells, Orexin A as agonist)
Type: cell-based
Details: Orexin A 0.5 nM
Text: Activation of the orexin receptors expressed in cell lines results in an increase in intracellular IP3 concentration. IP1, a downstream metabolite of IP3, accumulates in cells following receptor activation and is stable in the presence of LiCl. Using Homogeneous Time-Resolved Fluorescence technology with Lumi4-Tb cryptate (commercially available from Cisbio Bioassay.) and a suitable fluorescence plate reader. […] Chem. Genomics 2009, 3, 22-32. This technique is used to characterize pharmacological modification of the orexin receptors.
B. In Vitro Testing of OX2R Potency: OX2R IP1
IP1 measurements are performed in CHO-K1 cells stably expressing the full-length human orexin 2 receptor and the aequorin photoprotein. Cells are cultivated in Ham's nutrient mixture F12 medium with 10% fetal calf serum, in a 37° C., 95% humidity and 5% CO2 incubator. The CHO-K1/hOX2 cell mass is expanded to larger cell numbers. The cells are obtained as frozen cells in cryo-vials and stored until use at −150° C. The viability of the cells after thawing is >90%. In preparation for the assay, 24 hours before the assay, the cells are thawed at 37° C. and immediately diluted with cell culture medium. After centrifugation, the cell pellet is resuspended in medium and then distributed into the assay plates with a density of 5000 cells/25 μL per well. The plates are incubated for one hour at room temperature to reduce edge effects before they are incubated for 24 hours at 37° C./5% CO2. Compounds are prepared by a 8-point serial dilution in DMSO and a final dilution step into assay buffer (HBSS with 20 mM HEPES, 0.1% BSA and 50 mM LiCl, pH 7.4) to ensure a final DMSO concentration of 1% in the assay.
On the day of the assay, cells in the plate are washed twice with 60 μL assay buffer (20 μL buffer remained in the wells after washing), followed by adding 5 μL per well of compounds diluted in assay buffer. After 15 minutes of incubation at room temperature 5 μL per well of Orexin A peptide (final concentration: 0.5 nM) dissolved in assay buffer is added to the assay plate. The assay plate is incubated for 60 minutes at 37° C. Then 5 μL per well of Anti-IP1-Cryptate Tb solution and 5 μL per well of IP1-d2 dilution are added to all well of the plate and the plate is incubated for a further 60 minutes light protected at room temperature. The emission at 615 nm and 665 nm (Excitation wavelength: 320 nm) are measured using an EnVision reader (PerkinElmer). The ratio between the emission at 665 nm and 615 is calculated by the reader.
8-point four parametric non-linear curve fitting and determination of IC50 values and Hill slopes is performed using a regular analysis software e.g. AssayExplorer (Accelrys). In order to establish an agonist concentration independent parameter, Kb values are calculated using the following equation: IC50/((2+(A/EC50)n)^1/n−1) (with A=concentration agonist, EC50=EC50 agonist, n=Hill slope agonist) (see P. Leff, I. G. Dougall, Trends Pharmacol. Sci. 1993, 14(4), 110-112).
Kb values from Assay A (OX1R) and Assay B (OX2R) can then provide a selectivity ratio which is independent of the agonist (Orexin A) concentration.

`CCN(C(=O)c1ccc(F)cc1-n1nccn1)[C@@H](C)COc1ncc(C(F)(F)F)cc1F` [Example 48] and `CCN(C(=O)c1cc(F)ccc1-n1nccn1)[C@@H](C)COc1ncc(C(F)(F)F)cc1F` [Example 51] are within 1.5-fold of each other in Kb: 205 nM for the first, 189 nM for the second.

Compared with `CCN(C(=O)c1cccc(Cl)c1-n1nccn1)[C@@H](C)COc1ncc(C(F)(F)F)cc1F` [Example 49], `CCN(C(=O)c1ccc(F)c(F)c1-n1nccn1)[C@@H](C)COc1ncc(C(F)(F)F)cc1F` [Example 50] is 13-fold higher in Kb: 22 nM for the first, 283 nM for the second.

Compared with `CCN(C(=O)c1cc(F)c(F)cc1-n1nccn1)[C@@H](C)COc1ncc(C(F)(F)F)cc1F` [Example 52], `CCN(C(=O)c1cc(F)cc(F)c1-n1nccn1)[C@@H](C)COc1ncc(C(F)(F)F)cc1F` [Example 54] is 2-fold lower in Kb: 538 nM for the first, 274 nM for the second.

Going from `CCN(C(=O)c1ccc(F)cc1-c1nnc(C)o1)[C@@H](C)COc1ncc(C(F)(F)F)cc1F` [Example 55] to `CCN(C(=O)c1c(F)cccc1-n1nccn1)[C@@H](C)COc1ncc(C(F)(F)F)cc1F` [Example 56], the Kb falls from 3100 nM to 108 nM (29-fold).

Molecular target: T2, human Orexin 1 receptor (Homo sapiens, UniProt O43613)
T2 construct: stably expressing the full-length human Orexin 1 receptor; expressed in transfected cells; host or cells: CHO-K1 (CHO-K1/hOX1), co-expressing aequorin
T2 sequence (O43613 1-425): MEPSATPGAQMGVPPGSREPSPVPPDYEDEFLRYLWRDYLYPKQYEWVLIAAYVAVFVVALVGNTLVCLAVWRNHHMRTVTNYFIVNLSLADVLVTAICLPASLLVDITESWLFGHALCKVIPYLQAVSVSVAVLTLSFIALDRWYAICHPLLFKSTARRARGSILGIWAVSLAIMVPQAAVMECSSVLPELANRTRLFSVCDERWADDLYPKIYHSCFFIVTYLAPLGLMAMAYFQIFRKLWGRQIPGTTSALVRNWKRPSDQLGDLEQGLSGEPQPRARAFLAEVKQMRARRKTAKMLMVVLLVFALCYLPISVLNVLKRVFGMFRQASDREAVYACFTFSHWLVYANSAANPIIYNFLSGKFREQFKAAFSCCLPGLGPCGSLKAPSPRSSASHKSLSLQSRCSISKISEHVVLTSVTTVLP
Test: Assay A: In vitro testing of OX1R potency: OX1R IP1 (HTRF, CHO-K1/hOX1 cells, Orexin A as agonist)
Type: cell-based
Details: OX1R Kb at 0.5 nM Orexin A

Compared with `CCN(C(=O)c1ccc(F)cc1-n1nccn1)[C@@H](C)COc1ncc(C(F)(F)F)cc1F` [Example 48], `CCN(C(=O)c1cc(F)ccc1-n1nccn1)[C@@H](C)COc1ncc(C(F)(F)F)cc1F` [Example 51] is higher in “OX2R Kb/OX1R Kb” value: 156 for the first, 259 for the second.

Compared with `CCN(C(=O)c1cc(F)c(F)cc1-n1nccn1)[C@@H](C)COc1ncc(C(F)(F)F)cc1F` [Example 52], `CCN(C(=O)c1cc(F)cc(F)c1-n1nccn1)[C@@H](C)COc1ncc(C(F)(F)F)cc1F` [Example 54] is higher in “OX2R Kb/OX1R Kb” value: 256 for the first, 277 for the second.

Going from `CCN(C(=O)c1ccc(F)cc1-c1nnc(C)o1)[C@@H](C)COc1ncc(C(F)(F)F)cc1F` [Example 55] to `CCN(C(=O)c1c(F)cccc1-n1nccn1)[C@@H](C)COc1ncc(C(F)(F)F)cc1F` [Example 56], the “OX2R Kb/OX1R Kb” value falls from 430 to 98.

Same assay, conditions: OX1R Kb at 50 nM Orexin A

Going from `CCN(C(=O)c1ccc(F)cc1-n1nccn1)[C@@H](C)COc1ncc(C(F)(F)F)cc1F` [Example 48] to `CCN(C(=O)c1cc(F)ccc1-n1nccn1)[C@@H](C)COc1ncc(C(F)(F)F)cc1F` [Example 51], the “OX2R Kb/OX1R Kb” value rises from 220 to 430.

Going from `CCN(C(=O)c1cccc(Cl)c1-n1nccn1)[C@@H](C)COc1ncc(C(F)(F)F)cc1F` [Example 49] to `CCN(C(=O)c1ccc(F)c(F)c1-n1nccn1)[C@@H](C)COc1ncc(C(F)(F)F)cc1F` [Example 50], the “OX2R Kb/OX1R Kb” value rises from 333 to 410.

First: CCN(C(=O)c1cc(F)cc(F)c1-n1nccn1)[C@@H](C)COc1ncc(C(F)(F)F)cc1F [Example 54]
Second: CCN(C(=O)c1c(F)cccc1-n1nccn1)[C@@H](C)COc1ncc(C(F)(F)F)cc1F [Example 56]
The “OX2R Kb/OX1R Kb” value of the first is higher: 415 for the first, 257 for the second.

Same assay, conditions: Orexin A 0.5 nM; read-out: OX1R Kb (Orexin A concentration used)

Compared with `CCN(C(=O)c1ccc(F)cc1-n1nccn1)[C@@H](C)COc1ncc(C(F)(F)F)cc1F` [Example 48], `CCN(C(=O)c1cc(F)ccc1-n1nccn1)[C@@H](C)COc1ncc(C(F)(F)F)cc1F` [Example 51] is 1.8-fold lower in Kb: 1.31 nM for the first, 0.73 nM for the second.

Going from `CCN(C(=O)c1cc(F)c(F)cc1-n1nccn1)[C@@H](C)COc1ncc(C(F)(F)F)cc1F` [Example 52] to `CCN(C(=O)c1cc(F)cc(F)c1-n1nccn1)[C@@H](C)COc1ncc(C(F)(F)F)cc1F` [Example 54], the Kb falls from 2.1 nM to 0.99 nM (2.1-fold).

Compared with `CCN(C(=O)c1ccc(F)cc1-c1nnc(C)o1)[C@@H](C)COc1ncc(C(F)(F)F)cc1F` [Example 55], `CCN(C(=O)c1c(F)cccc1-n1nccn1)[C@@H](C)COc1ncc(C(F)(F)F)cc1F` [Example 56] is 6.5-fold lower in Kb: 7.2 nM for the first, 1.1 nM for the second.

Same assay, conditions: Orexin A 50 nM; read-out: OX1R Kb (Orexin A concentration used)

Going from `CCN(C(=O)c1ccc(F)cc1-n1nccn1)[C@@H](C)COc1ncc(C(F)(F)F)cc1F` [Example 48] to `CCN(C(=O)c1cc(F)ccc1-n1nccn1)[C@@H](C)COc1ncc(C(F)(F)F)cc1F` [Example 51], the Kb falls from 0.93 nM to 0.44 nM (2.1-fold).

First: CCN(C(=O)c1cccc(Cl)c1-n1nccn1)[C@@H](C)COc1ncc(C(F)(F)F)cc1F [Example 49]
Second: CCN(C(=O)c1ccc(F)c(F)c1-n1nccn1)[C@@H](C)COc1ncc(C(F)(F)F)cc1F [Example 50]
The Kb of the first is 10-fold lower: 0.066 nM for the first, 0.69 nM for the second.

Going from `CCN(C(=O)c1cc(F)cc(F)c1-n1nccn1)[C@@H](C)COc1ncc(C(F)(F)F)cc1F` [Example 54] to `CCN(C(=O)c1c(F)cccc1-n1nccn1)[C@@H](C)COc1ncc(C(F)(F)F)cc1F` [Example 56], the Kb falls from 0.66 nM to 0.42 nM (1.6-fold).
